The source of these data is ChEMBL document CHEMBL3046390, “Multifunctionalised benzoxazinones in the systems Oryza sativa-Echinochloa crus-galli and Triticum aestivum-Avena fatua as natural-product-based herbicide leads” (Pest Manag Sci, 2010).

Data set [1] can be described thus: Selectivity idex, ratio of IC50 for root elongation in Triticum aestivum to IC50 for root elongation in Avena fatua.
Data set [2] is described as follows: Selectivity idex, ratio of IC50 for root elongation in Oryza sativa to IC50 for root elongation in Echinochloa crus-galli.
Data set [3] deals with Triticum aestivum. As to the kind of experiment: Phytotoxicity against Triticum aestivum (wheat) assessed as inhibition of root elongation after 5 days relative to control. The format is organism-based. The note with it: 120 h.
The test system of data set [4] is Avena fatua. As to the kind of experiment: Herbicidal activity against Avena fatua assessed as inhibition of shoot length at 0.05 uM to 1 mM after 5 days relative to control. The format is functional, organism-based.
Data set [5] deals with Avena fatua. As to the kind of experiment: Herbicidal activity against Avena fatua assessed as inhibition of root length after 5 days relative to control. Format: functional, organism-based. The settings on record: 120 h.
Data set [6] has as its system Avena fatua. As to the kind of experiment: Herbicidal activity against Avena fatua assessed as inhibition of seed germination at 0.05 uM to 1 mM after 5 days relative to control. The format is functional, organism-based.
In data set [7] the test system is Echinochloa crus-galli. The data set can be described thus: Herbicidal activity against Echinochloa crus-galli (barnyard grass) assessed as inhibition of root length after 5 days relative to control. Format: functional, organism-based. The note with it: 120 h.
For data set [8], the system named is Echinochloa crus-galli. As to the kind of experiment: Herbicidal activity against Echinochloa crus-galli (barnyard grass) assessed as inhibition of shoot length at 0.05 uM to 1 mM after 5 days relative to control. The format is functional, organism-based.
For data set [9], the system named is Echinochloa crus-galli. As to the kind of experiment: Herbicidal activity against Echinochloa crus-galli (barnyard grass) assessed as inhibition of seed germination at 0.05 uM to 1 mM after 5 days relative to control. The format is functional, organism-based.
Data set [10] has as its system Triticum aestivum. As to the kind of experiment: Phytotoxicity against Triticum aestivum (wheat) assessed as inhibition of seed germination at 10 uM to 1 mM after 5 days relative to control. Format: organism-based. The note with it: in vivo, 120 h.
Data set [11] concerns Oryza sativa. The data set can be described thus: Phytotoxicity against Oryza sativa (rice) assessed as inhibition of root elongation after 7 days relative to control. Format: organism-based. The note with it: 168 h.
The test system of data set [12] is Oryza sativa. The data set can be described thus: Phytotoxicity against Oryza sativa (rice) assessed as inhibition of seed germination at 10 uM to 1 mM after 7 days relative to control. The format is organism-based. The note with it: in vivo, 168 h.
The subject of data set [13] is Echinochloa crus-galli. As to the kind of experiment: Ratio of Contanil IC50 to compound IC50 for root elongation in Echinochloa crus-galli (barnyard grass). The format is functional.

Active and inactive are the calls of the source. The calls are words filed in the database; no cut-off is given here.

One may read the IC50 as the midpoint of a concentration-inhibition curve. As for `CCC(=O)ON1C(=O)COc2ccc(Cl)cc21`, the values for the Ratio IC50 in data set [1] and in [2] were 2.42 and 0.2, respectively. For the same compound, the IC50 in [3] is 46.6 µM; in data set [5] it was 19.3 µM; in data set [7], 14 µM; in data set [11] it was 3 µM. The inhibition result in [4], in data set [6], in data set [8] and in [9] was “Active” in each case. For the same compound, the Activity entry in data set [10] and in data set [12] was “Non-toxic” each time.

With `CCCC1Oc2ccc(F)cc2N(O)C1=O` (stereo not drawn), the Ratio IC50 in [1] was 4.78; in data set [2], 1.85. The IC50 turned out to be 766 µM in data set [3], 160 µM in data set [5], 183 µM in [7] and 337 µM in data set [11]. Moreover, the inhibition result in data set [4], in [6], in [8] and in [9] was “Active” throughout. The Activity result in data set [10] and in data set [12] was “Non-toxic” in each case.

`CCC1Oc2ccc(Cl)cc2N(O)C1=O` [6-Cl-2-Et-D-DIBOA]: the Ratio IC50 in data set [1] came out at 0.28; in data set [2], 0.07. Also, the IC50 in data set [3] was found to be 130 µM; in data set [5], 466 µM; in data set [7], 840 µM; in data set [11], 56 µM. In addition, the inhibition result in data set [4], in data set [6], in data set [8] and in data set [9] was “Active” throughout. The Activity result in [10] and in data set [12] was “Non-toxic” each time.

For `O=C1C(c2ccccc2)Oc2ccc(Cl)cc2N1O` [6-Cl-2-Ph-D-DIBOA], the values for the Ratio IC50 in [1] and in data set [2] were 3.51 and 10.5, respectively. The IC50 came to 690 µM in data set [3], 197 µM in data set [5], 94 µM in [7] and 992 µM in data set [11]. Also, the inhibition result in data set [4], in data set [6], in data set [8] and in data set [9] was “Active” throughout. Besides, the Activity entry in data set [10] and in data set [12] was “Non-toxic” each time.

On to `CCCC1Oc2ccc(Cl)cc2N(O)C1=O` [6-Cl-2-Pr-D-DIBOA], for which the Ratio IC50 is 3.82 in [1] and 1.19 in data set [2]. Moreover, the IC50 in data set [3] was found to be 470 µM; in data set [5], 123 µM; in [7], 131 µM; in data set [11], 156 µM. In addition, the inhibition entry in [4], in data set [6], in [8] and in data set [9] was “Active” in each case. The Activity result in data set [10] and in data set [12] was “Non-toxic” throughout.

Consider `CCCCC(=O)ON1C(=O)COc2ccc(Cl)cc21` [6-Cl-4-Val-D-DIBOA], for which the Ratio IC50 in data set [1] worked out at 7.52; in data set [2], 0.16. The IC50 was 26.6 µM in [3], 3.54 µM in data set [5], 14 µM in data set [7] and 2 µM in data set [11]. Also, the inhibition entry in data set [4], in data set [6], in data set [8] and in data set [9] was “Active” throughout. Moreover, the Activity result in data set [10] and in [12] was “Non-toxic” throughout.

`CCC1Oc2ccc(F)cc2N(O)C1=O` [6-F-2-Et-D-DIBOA]: the Ratio IC50 in data set [1] was 2.59; in data set [2] it was 0.58. For the same compound, the IC50 stood at 63.1 µM in data set [3], 24.4 µM in [5], 25 µM in data set [7] and 15 µM in data set [11]. Also, the inhibition result in data set [4], in data set [6], in [8] and in data set [9] was “Active” in each case. The Activity result in [10] and in data set [12] was “Non-toxic” each time.

`O=C1C(c2ccccc2)Oc2ccc(F)cc2N1O` [6-F-2-Ph-D-DIBOA]: the results for the Ratio IC50 in data set [1] and in data set [2] were 3.65 and 5.86, respectively. Also, the half-maximal inhibitory concentration (IC50) in data set [3] worked out at 641 µM; in data set [5] it was 176 µM; in data set [7], 211 µM; in data set [11] it was 1240 µM. Further, the inhibition result in data set [4], in data set [6], in data set [8] and in [9] was “Active” in each case. For the same compound, the Activity entry in [10] and in data set [12] was “Non-toxic” throughout.

Regarding `CCCCC(=O)ON1C(=O)COc2ccc(F)cc21` [6-F-4-Val-D-DIBOA], the Ratio IC50 in [1] was determined as 8.92; in data set [2] it was 0.78; in data set [13], 12. For the same compound, the IC50 in [3] turned out to be 58.2 µM; in data set [5] it was 6.53 µM; in data set [7] it was 8 µM; in [11] it was 6 µM. Besides, the inhibition result in data set [4], in data set [6], in [8] and in data set [9] was “Active” throughout. Besides, the Activity result in data set [10] and in data set [12] was “Non-toxic” in each case.

Consider `CCC1Oc2c(Cl)cccc2N(O)C1=O` [8-Cl-2-Et-D-DIBOA], for which the Ratio IC50 in data set [1] is 2.25; in data set [2] it was 2.11. Besides, the half-inhibitory concentration (IC50) worked out at 345 µM in data set [3], 154 µM in data set [5], 145 µM in data set [7] and 305 µM in data set [11]. Besides, the inhibition result in data set [4], in data set [6], in data set [8] and in data set [9] was “Active” throughout. Besides, the Activity result in data set [10] and in data set [12] was “Non-toxic” in each case.

For the compound `O=C1C(c2ccccc2)Oc2c(Cl)cccc2N1O` [8-Cl-2-Ph-D-DIBOA], the Ratio IC50 in data set [1] turned out to be 1.75; in [2], 3.51. Besides, the IC50 came out at 263 µM in data set [3], 150 µM in data set [5], 109 µM in data set [7] and 384 µM in data set [11]. In addition, the inhibition entry in [4], in data set [6], in data set [8] and in [9] was “Active” each time. In addition, the Activity result in [10] and in data set [12] was “Non-toxic” in each case.

Take `CCCC1Oc2c(Cl)cccc2N(O)C1=O` [8-Cl-2-Pr-D-DIBOA]: the values for the Ratio IC50 in data set [1] and in [2] were 5.37 and 7.44, respectively. In addition, the IC50 was determined as 393 µM in [3], 73.2 µM in data set [5], 83 µM in data set [7] and 614 µM in [11]. The inhibition entry in [4], in data set [6], in data set [8] and in [9] was “Active” throughout. The Activity result in data set [10] and in data set [12] was “Non-toxic” in each case.

For `CCC(=O)Nc1ccc(Cl)c(Cl)c1` [PROPANIL], the Ratio IC50 in data set [2] was 1.87. Moreover, the Activity entry in data set [10] and in data set [12] was “Non-toxic” in each case.
